According to patent US8933056B2, “Soft protease inhibitors and pro-soft forms thereof” (Trustees of Tufts College, priority 2005, dated 2015):
Like-named read-outs stand apart in the source and are kept apart here.

Columns and labels:
DP-IV = DP-IV (Sus scrofa (Pig), UniProt P22411); test: DPP IV inhibition: thioxamide v. oxoamide; assay type: biochemical, porcine; conditions: for Inactivation Index: IC50 pH 8.0 to pH 2.0
Protocol: The inhibitory activity of a compound may be tested easily. […] A compound is then screened for its ability to inhibit the protease activity of DP-IV with respect to a […] substrate. […] Briefly, a reaction containing 50 micromol sodium Hepes (pH 7.8), 10 micromol Ala-Pro-p-nitroanilide, 6 milliunits of DP-IV, and 2% (vol/vol) dimethylformamide in a total volume of 1.0 mL. The reaction was initiated by the addition of enzyme and reaction rates were measured at 25 C; formation of reaction product (para-nitroanilide) in the presence and absence of a test compound can be detected photometrically, e.g., at 410 nm.

Proteasome = Proteasome (Homo sapiens, UniProt P28074); test: X-boroLeu proteasome inhibition: thioxamide v. oxoamide; assay type: biochemical; conditions: IC50 ph 7.6 to ph 2.0
[1] = Inactivation at pH 7.8 followed by 1H NMR; assay type: physicochemical; conditions: sodium phosphate buffer; pH jump from pH 2 to pH 7.8, 1H NMR integrals fit to single exponential; read-out: half-life for the inactivation reaction
DPPIV [2] = target: T1, DPPIV (Homo sapiens (Human), UniProt P27487); test: physchem; conditions: pH 7.8
Protocol: DPP IV inhibition was measured at various times after the pH jump and the IC50 values were plotted as a function of time. […] This value was fit to a single exponential.

DP9 = DP9 (Homo sapiens (Human), UniProt Q86TI2); test: Selectivity for dipeptidyl peptidase isoforms, DP9; assay type: biochemical
Protocol: (§1) The inhibitor solution is prepared by dissolving 3-5 mg of inhibitor in pH 2 solution (0.01 N HCl), such that the concentration of the solution is equal to 1 mg/10 mL. A 10 μL sample of this solution is then added to 990 μL of pH 8 buffer (0.1 M HEPES, 0.14 M NaCl), and the solution is allowed to stand at room temperature overnight.
(§2) The substrate solution is prepared by dissolving 2.0 mg of L-alanyl-L-proline-para-nitroanilide into 20 mL of pH 8 buffer.
(§3) 250 μL of enzyme solution is added to well #B1 to #H1, #A2 to #H2, and #A3 to #H3 of a 96 well plate, while well #A1 receives 250 μL of pH 8 buffer instead of enzyme solution.
(§4) A 1:10 dilution is then performed by adding inhibitor solution to #A5 and the solution is mixed well before transferring 10 μL of this solution from #A5 to #B5. The solution in #B5 is then mixed well before transferring 10 μL of this solution from #B5 to #C5. The solution in #C5 is then mixed well before transferring 10 μL of this solution from #C5 to #D5. The solution in #D5 is then mixed well before transferring 10 μL of this solution from #D5 to #E5. The solution in #E5 is then mixed well before transferring 10 μL of this solution from #E5 to #F5. The solution in #F5 is then mixed well before transferring 10 μL of this solution from #F5 to #G5. The solution in #G5 is then mixed well before transferring 10 μL of this solution from #G5 to #H5.
(§5) A 30 μL aliquot is then transferred from #H5 to #H3 for row H, and the contents are mixed well. The analogous procedure is repeated for rows G, F, E, D, C, B, and A sequentially. The plate is then shaken on a plate shaker for 5 min before allowing the plate to incubate at room temperature for an additional 5 min.
(§6) Once the plate has been allowed to incubate, 30 μL of substrate is added to each well except well #A1. […] The absorbance is then immediately read at a wavelength of 410 nm.
(§7) In this example, the assay is conducted for DPIV and DP8 or DP9. The ratio of IC50 values for each tested compound is calculated in order to determine the selectivity for the DPIV isoform. […]

DPPIV [3] = target: T1, DPPIV; test: DPIV inhibition assay (Examples 2 and 3); assay type: biochemical; conditions: pH 2; read-out: IC50s DPPIV pH 2
Protocol: as §1, §2, §3, §4, §5, §6, §7

DP8 = DP8 (Homo sapiens (Human), UniProt Q6V1X1); test: Selectivity for dipeptidyl peptidase isoforms, DP8; assay type: biochemical
Protocol: as §1, §2, §3, §4, §5, §6, §7

[4] = pH 2.0, read-out: IC50 (pH 2.0)
[5] = pH 8.0, read-out: IC50 (pH 8.0)

Chain of DP8 (Q6V1X1 whole entry, species assumed, canonical isoform): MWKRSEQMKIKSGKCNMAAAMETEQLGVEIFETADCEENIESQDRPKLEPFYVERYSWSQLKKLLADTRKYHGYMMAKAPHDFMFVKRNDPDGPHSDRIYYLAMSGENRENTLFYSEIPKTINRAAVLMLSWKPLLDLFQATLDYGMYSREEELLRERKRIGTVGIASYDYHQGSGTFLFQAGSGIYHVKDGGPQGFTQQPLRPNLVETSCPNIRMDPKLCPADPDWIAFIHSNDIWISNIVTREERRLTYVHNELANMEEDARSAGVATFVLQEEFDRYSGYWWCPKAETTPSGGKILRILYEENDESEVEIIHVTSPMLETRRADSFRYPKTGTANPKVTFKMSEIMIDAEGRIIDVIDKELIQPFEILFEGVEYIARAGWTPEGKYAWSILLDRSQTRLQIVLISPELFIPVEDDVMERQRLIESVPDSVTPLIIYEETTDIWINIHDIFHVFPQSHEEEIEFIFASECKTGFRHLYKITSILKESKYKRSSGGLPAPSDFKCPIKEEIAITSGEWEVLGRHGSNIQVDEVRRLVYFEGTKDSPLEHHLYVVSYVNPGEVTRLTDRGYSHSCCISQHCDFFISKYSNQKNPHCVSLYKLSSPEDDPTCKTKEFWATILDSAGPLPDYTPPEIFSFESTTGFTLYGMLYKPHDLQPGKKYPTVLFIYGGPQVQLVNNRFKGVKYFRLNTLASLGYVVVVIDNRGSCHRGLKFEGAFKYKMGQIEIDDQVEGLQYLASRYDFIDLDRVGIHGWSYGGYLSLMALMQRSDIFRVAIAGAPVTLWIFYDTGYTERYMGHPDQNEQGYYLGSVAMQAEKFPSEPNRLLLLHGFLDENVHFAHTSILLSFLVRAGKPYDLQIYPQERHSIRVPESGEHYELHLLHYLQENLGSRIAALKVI
Chain of DP-IV (P22411 whole entry): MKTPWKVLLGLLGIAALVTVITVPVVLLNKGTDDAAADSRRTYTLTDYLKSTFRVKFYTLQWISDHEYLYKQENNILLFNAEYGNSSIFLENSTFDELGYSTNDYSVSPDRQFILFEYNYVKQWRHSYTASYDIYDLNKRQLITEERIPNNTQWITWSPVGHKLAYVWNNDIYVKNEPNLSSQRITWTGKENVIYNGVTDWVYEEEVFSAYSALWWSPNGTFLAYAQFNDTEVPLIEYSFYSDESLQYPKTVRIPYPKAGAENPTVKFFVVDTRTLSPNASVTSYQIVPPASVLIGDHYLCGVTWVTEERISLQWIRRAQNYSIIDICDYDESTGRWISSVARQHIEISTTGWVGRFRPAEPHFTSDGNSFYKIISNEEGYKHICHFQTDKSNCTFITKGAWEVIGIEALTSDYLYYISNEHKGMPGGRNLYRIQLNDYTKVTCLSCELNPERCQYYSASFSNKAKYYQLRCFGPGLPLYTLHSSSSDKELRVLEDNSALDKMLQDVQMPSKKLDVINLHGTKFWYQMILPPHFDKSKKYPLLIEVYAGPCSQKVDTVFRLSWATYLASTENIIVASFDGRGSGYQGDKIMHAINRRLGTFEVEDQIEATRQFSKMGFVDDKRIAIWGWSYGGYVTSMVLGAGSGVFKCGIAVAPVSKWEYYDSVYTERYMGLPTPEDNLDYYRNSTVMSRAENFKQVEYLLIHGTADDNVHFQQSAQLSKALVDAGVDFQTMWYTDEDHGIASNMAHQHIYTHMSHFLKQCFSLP
Chain of Proteasome (P28074 60-263 limits assumed): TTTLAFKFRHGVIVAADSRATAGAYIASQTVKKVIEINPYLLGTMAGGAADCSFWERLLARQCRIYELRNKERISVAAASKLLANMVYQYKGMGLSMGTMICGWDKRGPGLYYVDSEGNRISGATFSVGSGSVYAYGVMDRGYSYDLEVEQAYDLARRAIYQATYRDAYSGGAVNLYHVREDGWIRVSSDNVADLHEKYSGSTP
Chain of DP9 (Q86TI2 whole entry, species assumed, canonical isoform): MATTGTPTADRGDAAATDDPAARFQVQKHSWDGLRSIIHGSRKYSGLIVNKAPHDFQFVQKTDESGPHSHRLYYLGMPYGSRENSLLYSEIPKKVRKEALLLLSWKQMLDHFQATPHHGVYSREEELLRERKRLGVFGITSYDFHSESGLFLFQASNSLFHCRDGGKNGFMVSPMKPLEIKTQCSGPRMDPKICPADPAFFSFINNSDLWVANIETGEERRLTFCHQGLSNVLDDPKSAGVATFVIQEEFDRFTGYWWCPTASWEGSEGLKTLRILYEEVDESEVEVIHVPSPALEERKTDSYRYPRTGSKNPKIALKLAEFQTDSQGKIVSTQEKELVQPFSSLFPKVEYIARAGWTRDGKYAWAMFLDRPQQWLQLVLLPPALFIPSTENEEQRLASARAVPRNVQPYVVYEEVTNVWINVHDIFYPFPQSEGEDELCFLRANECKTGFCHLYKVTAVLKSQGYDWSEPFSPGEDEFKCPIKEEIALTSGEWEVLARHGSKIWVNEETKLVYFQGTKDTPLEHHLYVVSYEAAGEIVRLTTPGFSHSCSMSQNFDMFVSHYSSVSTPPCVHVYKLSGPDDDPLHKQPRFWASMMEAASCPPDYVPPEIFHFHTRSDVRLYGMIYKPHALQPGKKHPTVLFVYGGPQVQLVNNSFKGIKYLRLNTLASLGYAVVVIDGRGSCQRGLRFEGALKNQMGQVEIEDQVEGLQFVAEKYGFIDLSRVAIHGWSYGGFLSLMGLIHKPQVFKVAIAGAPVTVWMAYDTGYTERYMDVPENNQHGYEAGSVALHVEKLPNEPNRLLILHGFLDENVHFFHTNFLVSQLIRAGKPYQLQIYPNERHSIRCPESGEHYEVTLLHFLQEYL
T1 sequence (P27487 whole entry, species assumed): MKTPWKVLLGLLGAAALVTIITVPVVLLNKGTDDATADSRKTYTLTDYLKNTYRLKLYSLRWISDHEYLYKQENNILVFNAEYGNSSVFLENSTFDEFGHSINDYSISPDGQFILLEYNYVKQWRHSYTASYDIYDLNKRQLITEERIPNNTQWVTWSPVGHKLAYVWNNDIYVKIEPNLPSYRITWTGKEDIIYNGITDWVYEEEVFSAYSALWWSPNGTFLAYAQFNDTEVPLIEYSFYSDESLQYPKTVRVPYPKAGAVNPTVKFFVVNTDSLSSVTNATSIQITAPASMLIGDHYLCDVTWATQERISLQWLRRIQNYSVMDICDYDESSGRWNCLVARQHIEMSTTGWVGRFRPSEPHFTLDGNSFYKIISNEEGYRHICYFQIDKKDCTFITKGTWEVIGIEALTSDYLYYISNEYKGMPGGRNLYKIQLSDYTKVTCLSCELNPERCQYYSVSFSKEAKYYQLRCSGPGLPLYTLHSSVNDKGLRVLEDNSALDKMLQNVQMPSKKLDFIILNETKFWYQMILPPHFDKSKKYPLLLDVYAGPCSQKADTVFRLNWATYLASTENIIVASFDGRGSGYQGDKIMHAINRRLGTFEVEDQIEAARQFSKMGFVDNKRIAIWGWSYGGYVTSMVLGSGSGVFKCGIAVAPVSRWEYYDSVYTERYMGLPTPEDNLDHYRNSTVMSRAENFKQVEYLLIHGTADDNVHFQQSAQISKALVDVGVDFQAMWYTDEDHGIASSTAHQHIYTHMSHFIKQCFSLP

O=C(CNCc1ccccc1)N1CCC[C@H]1B(O)O [N-(Benzyl)-Gly-boroPro, reference compound]
Inactivation Index (DP-IV): 7,300
IC50 (DP-IV; [4]): 0.0095 µM
IC50 (DP-IV; [5]): 69 µM

N[C@@H](Cc1c[nH]c2ccccc12)C(=S)N1CCC[C@H]1B(O)O [Trp-boroPro Thioxamide]
Inactivation Index (DP-IV): 440
IC50 (DP-IV; [4]): 0.0016 µM
IC50 (DP-IV; [5]): 0.7 µM

O=C(CNC12CC3CC(CC(O)(C3)C1)C2)N1CCC[C@H]1B(O)O [NVP-LAF237 analogue, reference compound]
Inactivation Index (DP-IV): 1.7
IC50 (DP-IV; [4]): 0.042 µM
IC50 (DP-IV; [5]): 0.072 µM

CC(C)C[C@H](NC(=S)[C@@H](N)Cc1ccccc1)B(O)O [Phe-boroLeu Thioxamide]
Inactivation Index (Proteasome): 20

OB(O)[C@@H]1CCCN1C(=S)CNC12CC3CC(CC(O)(C3)C1)C2 [NVP-LAF237 analogue Thioxamide]
Inactivation Index (DP-IV): 250
IC50 (DP-IV; [4]): 0.16 µM
IC50 (DP-IV; [5]): 40 µM

N[C@@H](Cc1c[nH]c2ccccc12)C(=O)N1CCC[C@H]1B(O)O [Trp-boroPro, reference compound]
Inactivation Index (DP-IV): 1500
IC50 (DP-IV; [4]): 0.002 µM
IC50 (DP-IV; [5]): 3 µM

N[C@@H](CCCC(=O)O)C(=S)N1CCC[C@H]1B(O)O [Aad-boroPro Thioxamide]
Inactivation Index (DP-IV): 12,000
IC50 (DP-IV; [4]): 0.0016 µM
IC50 (DP-IV; [5]): 19 µM

C[C@H](N)C(=S)N1CCC[C@H]1B(O)O [Ala-boroPro Thioxamide]
half-life [1]: 60 min
half-life (DPPIV [2]): 47 min

N=C(N)NCCC[C@H](N)C(=O)N1CCC[C@H]1B(O)O [Arg-boroPro, reference compound]
Inactivation Index (DP-IV): 3,900
IC50 (DP-IV; [4]): 0.0018 µM
IC50 (DP-IV; [5]): 7.1 µM

CC(C)C[C@H](NC(=S)CNC(=O)c1cnccn1)B(O)O [N-(Pyrazine-2-carbonyl)-Gly-boroLeu Thioxamide]
Inactivation Index (Proteasome): 3.8

CC(C)C[C@H](NC(=S)[C@@H](N)CC(=O)O)B(O)O [Asp-boroLeu Thioxamide]
Inactivation Index (Proteasome): 2.2

O=C([C@@H]1CCCN1)N1CCC[C@H]1B(O)O [Pro-boroPro, reference compound]
Inactivation Index (DP-IV): 21,000
IC50 (DP-IV; [4]): 0.0011 µM
IC50 (DP-IV; [5]): 23 µM

C[C@H](N)C(=O)N1CCC[C@H]1B(O)O [Ala-boroPro, reference compound]
half-life [1]: 30 min

N[C@@H](CCC(=O)O)C(=O)N1CCC[C@H]1B(O)O [Glu-boroPro, reference compound]
Inactivation Index (DP-IV): 500
IC50 (DP-IV; [4]): 0.006 µM
IC50 (DP-IV; [5]): 3 µM

N[C@H](C(=S)N1CCC[C@H]1B(O)O)C1CCCCC1 [Chg-boroPro Thioxamide]
Inactivation Index (DP-IV): 2,300
IC50 (DP-IV; [4]): 0.004 µM
IC50 (DP-IV; [5]): 9 µM

CC(C)C[C@H](NC(=O)CN)B(O)O [Gly-boroLeu, reference compound]
Inactivation Index (Proteasome): 11

NCC(=S)N1CCC[C@H]1B(O)O [Gly-boroPro Thioxamide]
Inactivation Index (DP-IV): 630
IC50 (DP-IV; [4]): 0.003 µM
IC50 (DP-IV; [5]): 1.9 µM

OB(O)[C@@H]1CCCN1C(=S)[C@@H]1CCCN1 [Pro-boroPro Thioxamide]
DP9 Ratio (DP9; IC50 pH 7.8 to pH 2): 180
Ratio DP9 To DPIV (pH 2) (DP9; pH 2): 2.5
IC50 (DP9; pH 2, read-out: IC50s DP9 pH 2): 0.0019 µM
IC50 (DP9; pH 7.8, read-out: IC50s DP9 pH 7.8): 0.34 µM
IC50 (DPPIV [3]): 0.00075 µM
Inactivation Index (DP-IV): 1,100
IC50 (DP-IV; [4]): 0.0064 µM
IC50 (DP-IV; [5]): 7 µM
DP8 Ratio (DP8; IC50 pH 7.8 to pH 2): 720
Ratio DPP8 to DPIV (pH 2) (DP8; pH 2): 3.2
IC50 (DP8; pH 2, read-out: IC50s DP8 pH 2): 0.0025 µM
IC50 (DP8; pH 7.8, read-out: IC50s DP8 pH 7.8): 1.8 µM
